Measured values reported in paper PMC10604444, “Extra-Synaptic GABAA Receptor Potentiation and Neurosteroid-Induced Learning Deficits Are Inhibited by GR3027, a GABAA Modulating Steroid Antagonist” (Biomolecules, 2023).
Read-outs that look alike come from different tables or passages of the source.

How the values were obtained:
[1] = test system: patients with hepatic encephalopathy; design: method as in PMID 33894327; settings: humans; cited from earlier work
[2] = Pharmacokinetic analysis of GR3027 in plasma after i.v. and p.o. administration; type: in vivo, rat; settings: for AUC: male Sprague-Dawley rats, 0-24 h; for Cmax / Tmax / half-life: rat plasma; for half-life: read-out: t½; for k el: in vivo
Protocol: Ten male Sprague-Dawley rats were used to assess PK with GR3027 given orally and intravenously, respectively. Animals were kept at room temperature with artificial light under a 12/12 h light/dark schedule, and with food and water ad libitum. Animals were given 2 mg/kg i.v. in 10% 2-hydroxypropyl-beta-cyclodextrin or 10 mg/kg orally. Approximately 50 µL blood samples were taken at 15 min, 30 min, 1 h, 2 h, 4 h, 8 h, 12 h, and 24 h after oral dosing, and 5 min, 15 min, 30 min, 1 h, 2 h, 4 h, 8 h, 12 h, and 24 h after intravenous dosing, and plasma was frozen. The analysis method has been described earlier and is here briefly described. All the samples were analyzed in triplicate by Admescope Ltd., Oulu, Finland, using an LC/MS/MS method developed for the purpose, using a Waters ACQUITY UPLC_Waters XEVO-TQS triple-quadrupole mass spectrometer.
Blood/plasma samples were obtained at several time points after the i.v. and p.o. administration of GR3027 to rats. The maximum plasma concentration (Cmax) and the time to Cmax (Tmax) were derived directly from the plasma concentration data. The results are shown in Table 4 as the area under the concentration–time curve (AUC, 0–24 h), elimination half-life in plasma (t1/2), elimination rate constant (Ke), total body clearance (CL), and mean residence time (MRT), i.e., how long GR3027 remained in the body. The tentative oral bioavailability (F) was calculated by dividing the dose-normalized AUC after p.o. administration by the dose-normalized AUC after i.v. administration, i.e., F = [(AUC(p.o.)/Dose(p.o.))///(AUC(i.v)/Dose (i.v.))], and reported as percentages (%).

[3] = molecular target: T1, human α5β3γ2L GABAA receptors expressed in HEK-293 cells (Homo sapiens, UniProt P28472+P31644); experiment: Whole-cell patch clamp of GABA/THDOC-evoked currents, extra-synaptic protocol (Dynaflow); type: cell-based; settings: for Current with GR3027 alone: baseline holding current +2.15 ± 1.4 pA, n = 9, not significant
T1 construct: The coding regions of the human GABAA receptor subunits were then amplified by PCR; expressed in transfected cells; host or cells: HEK-293 (permanently transfected, pcDNA3.1 vectors, CMV promoter)
Description: Wild-type HEK-293 cells (passage 4, originating from Pasteur Institute, Paris, France) were permanently transfected with vectors including the human CMV promoter for the constitutive expression of the human α5, β3, and γ2L GABAA receptor subunits (α5β3γ2L) or the human α1, β2, and γ2L GABAA receptor subunits (α1β2γ2L). The production of the plasmids used in the sub-cloning of the different subunits is published in Rahman et al..
The electrophysiological recordings from HEK-293 cells were performed with the whole-cell voltage clamp technique, at room temperature (21–23 °C). After compensation for liquid junction potential, a steady holding potential of −17 mV was used in all experiments. Patch pipettes were pulled from borosilicate glass (Bergman Labora AB, Danderyd, Sweden) and polished to a resistance of 2–5 MΩ when filled with intracellular solution and immersed in a bath (extracellular) solution (for solutions, see below). The pipette tips were filled by immersion in standard intracellular solution and subsequent back-filling with intracellular solution. The recordings were made using an Axopatch 200B amplifier and a Digidata 1322A (Axon Instruments, Foster City, CA, USA) controlled via a Pentium processor-based personal computer. Data were acquired using the pCLAMP software sampled at 10 kHz, filtered at 2–10 kHz, and analyzed with Clampfit (versions 9.0, both from Axon Instruments, Foster City, CA, USA). A series resistance between the pipette and cell membrane not higher than 20 MΩ was accepted. No series resistance compensation was used. The stability of series resistance was monitored repeatedly from the time course of capacitative transients during the experiments. The measured liquid junction potential between extracellular and intracellular solutions was subtracted from all data presented, as previously described. All experiments were performed at room temperature (21–23 °C).
In all electrophysiological experiments, tetrahydro-deoxycorticosterone (THDOC) was used as a positive GABAA receptor steroid modulator (PAM) to mimic the effect of AP on central GABAA channels. […] THDOC (Sigma Chemical Co., St. Louis, MO, USA) and GR3027 (3α-ethynyl, 3β-hydroxyl, 5α-androstan-17-oxime, golexanolone, Umecrine Cognition AB, Stockholm, Sweden) were dissolved in dimethyl sulfoxide (DMSO) using ultrasound, for the preparation of solutions containing a final DMSO concentration of 0.1%. GR3027 was discovered within a series of molecules developed and patented by T. Bäckström and G. Ragagnin, (patent WO 2008/063128). All solutions were complemented with DMSO to achieve the same final concentration as in the steroid-containing test solution. GABA (Sigma Chemical Co., St. Louis, MO, USA) was first prepared as a stock solution (dissolved in EC with ultrasonic treatment) to the desired concentrations, with the corresponding final concentrations of test solutions (30 µM and 0.3 µM; see protocols below). GABA was added to the experimental solution without a change in osmolarity.
The experimental protocols were designed to mimic the physiological conditions of the tonic (extra-synaptic) and phasic (synaptic) activation of GABAA receptors observed in central neurons, depending on the subunit compositions, respectively. GABA-evoked currents in HEK-293 cells expressing extra-synaptic (α5β3γ2L) or synaptic (α1β2γ2L) types of GABAA receptors were studied using the conventional whole-cell patch clamp technique. To mimic the physiological GABA exposure, the HEK-293 cells expressing α1β2γ2L GABAA receptors were exposed to short applications (40 ms) of 30 µM GABA, whereas HEK-293 cells expressing α5β3γ2L GABAA receptors were exposed to prolonged applications (6 s) of 0.3 µM GABA, either in the absence or presence of THDOC and/or GR3027.

[4] = male, Sprague-Dawley, iv, 2 mg/kg i.v., mean
[5] = male, Sprague-Dawley, po, 10 mg/kg p.o., mean

T1 sequence (P31644 32-462): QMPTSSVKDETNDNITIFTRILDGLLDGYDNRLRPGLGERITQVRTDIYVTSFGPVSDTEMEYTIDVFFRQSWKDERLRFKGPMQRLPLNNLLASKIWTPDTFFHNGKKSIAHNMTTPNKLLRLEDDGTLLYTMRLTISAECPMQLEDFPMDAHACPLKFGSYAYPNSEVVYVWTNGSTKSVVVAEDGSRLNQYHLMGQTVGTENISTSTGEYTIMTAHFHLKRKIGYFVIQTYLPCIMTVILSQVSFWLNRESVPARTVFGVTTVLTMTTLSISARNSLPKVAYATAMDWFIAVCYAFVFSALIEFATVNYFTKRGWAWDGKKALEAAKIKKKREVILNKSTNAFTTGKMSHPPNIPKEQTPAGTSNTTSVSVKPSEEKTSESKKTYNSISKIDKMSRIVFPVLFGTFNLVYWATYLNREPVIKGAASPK
T1 sequence (P28472 26-473 isoform P28472-2 limits assumed): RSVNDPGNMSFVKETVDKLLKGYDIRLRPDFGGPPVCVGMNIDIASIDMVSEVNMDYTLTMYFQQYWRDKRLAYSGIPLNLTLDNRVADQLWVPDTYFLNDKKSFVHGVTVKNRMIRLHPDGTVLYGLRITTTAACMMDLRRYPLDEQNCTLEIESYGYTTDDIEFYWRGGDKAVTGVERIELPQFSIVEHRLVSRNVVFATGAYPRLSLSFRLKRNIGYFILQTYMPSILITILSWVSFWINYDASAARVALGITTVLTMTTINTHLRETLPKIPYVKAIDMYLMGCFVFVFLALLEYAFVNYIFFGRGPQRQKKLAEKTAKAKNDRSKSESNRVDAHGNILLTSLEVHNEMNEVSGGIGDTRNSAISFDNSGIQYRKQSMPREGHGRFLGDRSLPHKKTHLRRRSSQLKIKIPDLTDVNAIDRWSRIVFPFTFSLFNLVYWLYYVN
T1 sequence (P18507 40-475 partner): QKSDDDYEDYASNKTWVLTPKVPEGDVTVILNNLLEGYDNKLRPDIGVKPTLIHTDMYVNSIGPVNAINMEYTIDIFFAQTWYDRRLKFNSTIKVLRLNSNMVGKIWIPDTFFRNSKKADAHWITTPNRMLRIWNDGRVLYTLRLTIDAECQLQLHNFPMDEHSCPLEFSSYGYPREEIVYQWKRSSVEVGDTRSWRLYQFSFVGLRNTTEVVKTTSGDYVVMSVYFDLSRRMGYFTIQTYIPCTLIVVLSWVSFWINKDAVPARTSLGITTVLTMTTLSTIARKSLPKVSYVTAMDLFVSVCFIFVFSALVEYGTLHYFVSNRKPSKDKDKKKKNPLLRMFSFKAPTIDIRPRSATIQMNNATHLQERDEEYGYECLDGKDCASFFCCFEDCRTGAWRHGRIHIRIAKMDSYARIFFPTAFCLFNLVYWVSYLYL

For `C#C[C@]1(O)CC[C@@]2(C)[C@@H](CC[C@@H]3[C@@H]2CC[C@]2(C)/C(=N/O)CC[C@@H]32)C1` [GR3027, 3α-ethynyl-3β-hydroxyl-5α-androstan-17-oxime], the “Effect in patients with hepatic encephalopathy” value [1] is given as “improves EEG, vigilance, and cognition”, the AUC ([2]; 2 mg/kg i.v., plasma, mean) is given as 2205586 min ∗ ng/mL and the AUC ([2]; 10 mg/kg p.o., plasma, mean) is given as 113568 min ∗ ng/mL. For the same compound, the Cmax [2, 4] was 74500 ng/mL, the Tmax [2, 4] was 0.0833 h and the half-life [2, 4] was 11.3 h. For the same compound, the MRT ([2]; male, Sprague-Dawley, plasma, iv, 2 mg/kg i.v., rat, mean) was 0.277 h, the clearance ([2]; male, Sprague-Dawley, plasma, iv, 2 mg/kg i.v., rat, mean, read-out: Cl (total body clearance)) was 1.09 mL/min/kg and the bioavailability ([2]; male, Sprague-Dawley, plasma, oral, 10 mg/kg p.o. vs 2 mg/kg i.v., dose-normalized AUC, rat, read-out: F (tentative oral bioavailability)) was 1%. It also gave an MRT ([2]; male, Sprague-Dawley, plasma, po, 10 mg/kg p.o., rat, mean) of 4.73 h, a Cmax [2, 5] of 504 ng/mL and a Tmax [2, 5] of 0.567 h. For the same compound, the half-life [2, 5] was 5.17 h, the k el ([2]; male, Sprague-Dawley, rat, iv, 2 mg/kg) was 2e-05 s⁻¹ and the k el ([2]; male, Sprague-Dawley, rat, po, 10 mg/kg) was 4.17e-05 s⁻¹. For the same compound, the IC50 [3] was 344 nM, the “Imax for decrease of AUC of THDOC-potentiated GABA-mediated response” value ([3]; 200 nM THDOC + 0.3 µM GABA) was −35% and the “Imax for decrease of peak current amplitude of THDOC-potentiated GABA-mediated response” value ([3]; 200 nM THDOC + 0.3 µM GABA) was −37%. The “Imax for reduction of THDOC-mediated outward current shift” value ([3]; 200 nM THDOC, absence of GABA) was −33%, the “Mean change of peak current amplitude of GABA-mediated response” value ([3]; 1 µM GR3027 + 0.3 µM GABA, absence of THDOC, SEM 0.9, p = 0.02, n = 7) was −7.0% and the “Mean change of AUC of GABA-mediated response” value ([3]; 1 µM GR3027 + 0.3 µM GABA, absence of THDOC, SEM 1.5, NS, n = 7) was −3.8%. For the same compound, the “Effect on THDOC-induced current response (absence of GABA)” value ([3]; 1 µM GR3027, 1 µM THDOC) was “significantly reduced”, the “Effect on baseline holding current” value ([3]; 1 µM GR3027, absence of THDOC) was “did not change the baseline holding current” and the “Current with GR3027 alone” value ([3]; 1 µM GR3027, no GABA or THDOC) was “+1.6 ± 1.4 pA”. The “Current with GR3027 alone” value ([3]; 3 µM GR3027, no GABA or THDOC) was “+0.73 ± 0.4 pA”, the “Effect on THDOC-induced current response (absence of GABA)” value ([3]; 3 µM GR3027, 0.1, 0.3, 0.6 and 1 µM THDOC) was “significantly reduced” and the IC50 ([3]; IC50 for decrease of AUC of THDOC-potentiated GABA-mediated response, 200 nM THDOC + 0.3 µM GABA, n = 4-14) was 341 nM. For the same compound, the IC50 ([3]; IC50 for decrease of peak current amplitude of THDOC-potentiated GABA-mediated response, 200 nM THDOC + 0.3 µM GABA, n = 4-14) was 563 nM.
